According to patent US9067898B1, “Isothiazole derivatives as GPR120 agonists for the treatment of type II diabetes” (Janssen Pharmaceutica NV, priority 2014, dated 2015):

What was measured:
[1] = target: T1, long form of human GPR120 (Homo sapiens, UniProt Q5NUL3); experiment: Human GPR120 DiscoveRx PathHunter Beta-Arrestin assay, Procedure β-arrestin A; assay type: cell-based; conditions: PathHunter CHO-K1 GPR120 β-Arrestin cell line, 3000 cells per well, read-out: hGPR120 β-arrestin A EC50
T1 construct: host or cells: PathHunter CHO-K1 GPR120 β-Arrestin Cell Line
Outline: (§1)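 PathHunter CHO-K1 β-arrestin cells expressed long-form GPR120 (Procedure A, 3000 cells/well) or short-form GPR120 (Procedure B, 5000 cells/well). Compounds were serially diluted from 25 µM and incubated 90 min at 37 °C in HBSS/20 mM HEPES/0.1% BSA, pH 7.4. Luminescence was read after 60 min detection at RT; EC50 comes from % activity versus positive control, Hill slope fixed at 1.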

[2] = target: T2, short form of the GPR120 receptor (GPR120S) (Homo sapiens, UniProt Q5NUL3); experiment: Human GPR120 DiscoveRx PathHunter Beta-Arrestin assay, Procedure β-arrestin B; assay type: cell-based; conditions: PathHunter CHO-K1 GPR120S β-Arrestin cell line, 5000 cells/well, read-out: hGPR120 β-arrestin B EC50
T2 construct: host or cells: PathHunter CHO-K1 GPR120S β-Arrestin Cell Line
Outline: as §1

T2 sequence (Q5NUL3 whole entry): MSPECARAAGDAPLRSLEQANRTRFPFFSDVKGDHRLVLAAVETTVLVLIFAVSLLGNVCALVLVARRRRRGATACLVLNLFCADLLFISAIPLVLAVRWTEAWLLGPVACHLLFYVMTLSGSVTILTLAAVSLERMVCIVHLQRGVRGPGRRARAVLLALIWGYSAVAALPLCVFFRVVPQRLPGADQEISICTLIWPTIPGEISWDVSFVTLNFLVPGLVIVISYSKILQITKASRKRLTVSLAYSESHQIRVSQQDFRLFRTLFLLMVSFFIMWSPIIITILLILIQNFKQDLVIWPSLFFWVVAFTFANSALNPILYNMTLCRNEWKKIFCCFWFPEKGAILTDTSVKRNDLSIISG
T2 sequence (P32121 whole entry partner): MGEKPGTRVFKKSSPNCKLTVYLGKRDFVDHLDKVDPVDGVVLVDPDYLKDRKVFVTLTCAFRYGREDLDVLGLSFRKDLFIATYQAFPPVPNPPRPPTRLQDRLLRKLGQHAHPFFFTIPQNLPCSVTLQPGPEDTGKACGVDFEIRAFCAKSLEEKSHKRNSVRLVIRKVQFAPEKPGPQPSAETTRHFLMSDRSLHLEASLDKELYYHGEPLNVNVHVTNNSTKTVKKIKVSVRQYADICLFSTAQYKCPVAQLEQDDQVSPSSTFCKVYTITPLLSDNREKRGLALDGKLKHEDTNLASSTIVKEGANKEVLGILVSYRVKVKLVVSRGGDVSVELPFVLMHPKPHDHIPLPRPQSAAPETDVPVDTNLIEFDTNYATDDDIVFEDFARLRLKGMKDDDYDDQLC
T1 sequence (Q5NUL3 1-377 isoform Q5NUL3-1): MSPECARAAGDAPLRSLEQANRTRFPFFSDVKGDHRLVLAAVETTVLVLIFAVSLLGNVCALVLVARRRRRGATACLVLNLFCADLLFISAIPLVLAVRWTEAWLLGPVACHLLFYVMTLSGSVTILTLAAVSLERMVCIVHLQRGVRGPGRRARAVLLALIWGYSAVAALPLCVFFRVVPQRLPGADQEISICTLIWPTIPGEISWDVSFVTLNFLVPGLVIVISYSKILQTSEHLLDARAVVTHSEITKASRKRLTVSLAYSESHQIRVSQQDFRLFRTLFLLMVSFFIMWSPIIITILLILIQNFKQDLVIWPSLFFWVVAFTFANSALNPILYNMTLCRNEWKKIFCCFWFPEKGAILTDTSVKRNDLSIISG
T1 sequence (P32121 whole entry partner): as the sequence (P32121 whole entry partner) above

Molecule | EC50 [1] [nM] | EC50 [2] [nM]
CCc1ccc(-c2cc(F)sc2COc2ccc(CCC(=O)O)c(C)c2C)cc1 [Cpd 1, 3-(4-[[3-(4-ethylphenyl)-5-fluorothiophen-2-yl]methoxy]-2,3-dimethylphenyl)propanoic acid] | 218 | 205
Cc1c(CCC(=O)O)ccc(OCc2sc(F)cc2-c2ccc(Cl)cc2)c1C [Cpd 3, 3-(4-((3-(4-chlorophenyl)-5-fluorothiophen-2-yl)methoxy)-2,3-dimethylphenyl)propanoic acid] | – | 83
Cc1ccc(-c2nsc(C(F)(F)F)c2COc2c(F)cc(CCC(=O)O)cc2F)c(F)c1 [Cpd 65, 3-(3,5-difluoro-4-[[3-(2-fluoro-4-methylphenyl)-5-(trifluoromethyl)-1,2-thiazol-4-yl]methoxy]phenyl)propanoic acid] | 168 | 126
CCc1ccc(-c2nsc(C(F)(F)F)c2COc2ccc(CCC(=O)O)c(F)c2F)cc1 [Cpd 73, 3-(4-((3-(4-ethylphenyl)-5-(trifluoromethyl)isothiazol-4-yl)methoxy)-2,3-difluorophenyl)propanoic acid] | 134 | –
Cc1ccc(-c2nsc(C(F)(F)F)c2COc2c(F)cc(CC(C)C(=O)O)cc2F)c(F)c1 (centres unmarked) [Cpd 76, 3-(3,5-difluoro-4-[[3-(2-fluoro-4-methylphenyl)-5-(trifluoromethyl)-1,2-thiazol-4-yl]methoxy]phenyl)-2-methylpropanoic acid] | – | 179
O=C(O)CCc1cc(F)c(OCc2c(-c3ccc(Cl)cc3)nsc2C(F)(F)F)c(F)c1 [Cpd 79, 3-(4-[[3-(4-chlorophenyl)-5-(trifluoromethyl)-1,2-thiazol-4-yl]methoxy]-3,5-difluorophenyl)propanoic acid] | 71 | 62
CCc1ccc(-c2snc(Cl)c2COc2ccc(CCC(=O)O)c(C)c2C)cc1 [Cpd 85, 3-(4-[[3-chloro-5-(4-ethylphenyl)-1,2-thiazol-4-yl]methoxy]-2,3-dimethylphenyl)propanoic acid] | 166 | –
OCCCc1cc(F)c(OCc2c(-c3ccc4c(c3)OCO4)nsc2C(F)(F)F)c(F)c1 [Cpd 93, 3-(4-[[3-(2H-1,3-benzodioxol-5-yl)-5-(trifluoromethyl)-1,2-thiazol-4-yl]methoxy]-3,5-difluorophenyl)propan-1-ol] | 38 | 27
CC(Cc1cc(F)c(OCc2c(-c3ccc(Cl)cc3)nsc2C(F)(F)F)c(F)c1)C(=O)O (centres unmarked) [Cpd 108, 3-(4-[[3-(4-chlorophenyl)-5-(trifluoromethyl)-1,2-thiazol-4-yl]methoxy]-3,5-difluorophenyl)-2-methylpropanoic acid] | 261 | 162
O=C(O)CCc1cc(F)c(OCc2c(-c3ccc(Cl)cc3)nsc2C(F)(F)F)c(F)c1F [Cpd 116, 3-(4-((3-(4-chlorophenyl)-5-(trifluoromethyl)isothiazol-4-yl)methoxy)-2,3,5-trifluorophenyl)propanoic acid] | 112 | 88
O=C(O)CCc1cc(F)c(OCc2c(-c3ccc(Cl)c(F)c3)nsc2C(F)(F)F)c(F)c1F [Cpd 138, 3-(4-((3-(4-chloro-3-fluorophenyl)-5-(trifluoromethyl)isothiazol-4-yl)methoxy)-2,3,5-trifluorophenyl)propanoic acid] | 114 | 161
Cc1c(CCC(=O)O)ccc(OCc2c(-c3ccc(Cl)cc3)nsc2C(F)(F)F)c1C [Cpd 142, 3-(4-((3-(4-chlorophenyl)-5-(trifluoromethyl)isothiazol-4-yl)methoxy)-2,3-dimethylphenyl)propanoic acid] | 141 | 100
O=C(O)CCc1c(F)c(F)c(OCc2c(-c3ccc(Cl)cc3)nsc2C(F)(F)F)c(F)c1F [Cpd 152, 3-(4-((3-(4-chlorophenyl)-5-(trifluoromethyl)isothiazol-4-yl)methoxy)-2,3,5,6-tetrafluorophenyl)propanoic acid] | 183 | 183
O=C(O)CCc1cc(F)c(OCc2c(-c3ncc(Cl)cc3F)nsc2C(F)(F)F)c(F)c1 [Cpd 153, 3-(4-((3-(5-chloro-3-fluoropyridin-2-yl)-5-(trifluoromethyl)isothiazol-4-yl)methoxy)-3,5-difluorophenyl)propanoic acid] | 189 | 104
Cc1c(CCC(=O)O)ccc(OCc2c(-c3ncc(Cl)cc3F)nsc2C(F)(F)F)c1C [Cpd 180, 3-(4-((3-(5-chloro-3-fluoropyridin-2-yl)-5-(trifluoromethyl)isothiazol-4-yl)methoxy)-2,3-dimethylphenyl)propanoic acid] | 568 | 294
OCC#Cc1cc(F)c(OCc2c(-c3ccc(Cl)cc3)nsc2C(F)(F)F)c(F)c1 [Cpd 213, 3-(4-[[3-(4-chlorophenyl)-5-(trifluoromethyl)-1,2-thiazol-4-yl]methoxy]-3,5-difluorophenyl)prop-2-yn-1-ol] | 59 | 87

Continued by falling EC50 [1], values first:

EC50 [1] [nM] | EC50 [2] [nM] | Molecule
431 | 322 | 3-(4-[[3-(4-chlorophenyl)-5-(trifluoromethyl)-1,2-thiazol-4-yl]methoxy]-3-methylphenyl)propanoic acid [Cpd 235]
322 | 990 | Cc1ccccc1-c1snc(Cl)c1COc1c(F)cc(CCC(=O)O)cc1F [Cpd 193, 3-(4-[[3-chloro-5-(2-methylphenyl)-1,2-thiazol-4-yl]methoxy]-3,5-difluorophenyl)propanoic acid]
278 | 139 | O=C(O)CCc1cc(F)c(OCc2c(C3CCCC3)nsc2C(F)(F)F)c(F)c1 [Cpd 71, 3-(4-[[3-cyclopentyl-5-(trifluoromethyl)-1,2-thiazol-4-yl]methoxy]-3,5-difluorophenyl)propanoic acid]
252 | 409 | Cc1c(CCC(=O)O)ccc(OCc2c(-c3ccccc3)nsc2C(F)(F)F)c1C [Cpd 134, 3-(2,3-dimethyl-4-[[3-phenyl-5-(trifluoromethyl)-1,2-thiazol-4-yl]methoxy]phenyl)propanoic acid]
156 | 54 | CCc1cc(CCC(=O)O)ccc1OCc1c(-c2ccc(Cl)cc2)nsc1C(F)(F)F [Cpd 162, 3-(4-[[3-(4-chlorophenyl)-5-(trifluoromethyl)-1,2-thiazol-4-yl]methoxy]-3-ethylphenyl)propanoic acid]
143 | 63 | O=C(O)CCc1cc(F)c(OCc2c(-c3ccc(Cl)cc3F)nsc2C(F)(F)F)c(F)c1 [Cpd 74, 3-(4-((3-(4-chloro-2-fluorophenyl)-5-(trifluoromethyl)isothiazol-4-yl)methoxy)-3,5-difluorophenyl)propanoic acid]
97 | 68 | 3-(4-[[3-(4-ethylphenyl)-5-(trifluoromethyl)-1,2-thiazol-4-yl]methoxy]-3,5-difluorophenyl)propanoic acid [Cpd 70]
97 | – | OCCCc1cc(F)c(OCc2c(-c3ccc(Cl)cc3)nsc2C(F)(F)F)c(F)c1 [Cpd 100, 3-(4-[[3-(4-chlorophenyl)-5-(trifluoromethyl)-1,2-thiazol-4-yl]methoxy]-3,5-difluorophenyl)propan-1-ol]
86 | 43 | O=C(O)CCc1cc(F)c(OCc2c(-c3ccc(Cl)c(F)c3)nsc2C(F)(F)F)c(F)c1 [Cpd 67, 3-(4-((3-(4-chloro-3-fluorophenyl)-5-(trifluoromethyl)isothiazol-4-yl)methoxy)-3,5-difluorophenyl)propanoic acid]
57 | 22 | OCCCc1cc(F)c(OCc2c(-c3ccc4c(c3)OCO4)csc2C(F)(F)F)c(F)c1 [Cpd 37, 3-(4-((4-(benzo[d][1,3]dioxol-5-yl)-2-(trifluoromethyl)thiophen-3-yl)methoxy)-3,5-difluorophenyl)propan-1-ol]
40 | – | OCCCc1ccc(OCc2c(Cl)nsc2-c2ccc(Cl)cc2)c(F)c1F [Cpd 102, 3-(4-((3-chloro-5-(4-chlorophenyl)isothiazol-4-yl)methoxy)-2,3-difluorophenyl)propan-1-ol]
28 | 31 | 3-(4-[[3-(4-ethylphenyl)-5-(trifluoromethyl)-1,2-thiazol-4-yl]methoxy]-1-benzothiophen-7-yl)propanoic acid [Cpd 92]
